Results published in a melting point compilation (Tetko et al.; mined from patent text by program, amines drawn as free bases though some values may be those of a salt).

| melting point | Compound |
| --- | --- |
| 162 to 163 °C | CC1(C)C=C(N2CCCCC2=O)c2cc(C#N)ccc2O1 |
| 153 to 154 °C | Cc1c(C)c2c(c(C)c1O)CCC(C)(C(=O)N1CCC(c3ccc(N)cc3)CC1)O2 (centres undefined) |
| > 250 °C | CCCc1c2oc(C(=O)O)cc(=O)c2cc2c(=O)ccn(Cc3ccccc3)c12 |
| 138 to 140 °C | CCCc1nc2c(N)nc3ccccc3c2n1CCCCN(OC)C(C)=O |
| 245 to 246 °C | CCn1cc(C(=O)O)c(=O)c2ccc(F)c(C)c21 |
| 146 to 149 °C | C=CCC12CC(=O)N(C)C1(O)CCc1ccc(OC)cc12 (centres undefined) |
| 62 to 64 °C | O=C1c2ccc(CCCCc3ccccc3)cc2CCN1OC1CCCCO1 (centres undefined) |
| 176 to 183 °C | N#Cc1c(N2CCN(C(=O)c3c[nH]cn3)CC2)c2ccccc2n(Cc2ccc(F)cc2)c1=O |
| 42 to 45 °C | CCOC(=O)c1nc2cc(F)ccc2nc1CC |
| 200 to 204 °C | COc1cc2cnnc(N3CCC(CCN(C)C(=O)Nc4cccnc4)CC3)c2cc1OC |
| 170 to 172 °C | O=C1C(=O)c2ccccc2C2=C1SCC1(CCN(Cc3ccccc3)CC1)O2 |
| 178 to 180 °C | COc1ccc(Br)cc1CC1CCCn2c1nc(-c1ccncn1)cc2=O (racemic) |
| 186 to 187 °C | CCCc1c(OCc2nnn[nH]2)ccc(C(=O)c2ccccc2O)c1O |
| 131 to 133 °C | Cn1nnc(-c2ccc3c(ccn3-c3ccc(F)cc3)c2)n1 |
| 134 to 135 °C | CCOC(=O)CCC(Oc1cc(OCc2ccsc2)ccc1C(N)=S)c1ccccc1C (racemic) |
| 106 to 116 °C | COc1cc2c(cc1F)C1(CO2)C(=O)N(CC2CCCO2)c2ccccc21 (centres undefined) |
| 100 to 102 °C | O=C1c2ccc(Cl)cc2OCc2cccnc21 |
| 179 °C | COc1cc(CCN2CCN(C)CC2)cc(OC)c1-c1ccc(C[C@H](NC(=O)c2c(Cl)cccc2Cl)C(=O)O)cc1 |
| 223 to 224 °C | CS(=O)(=O)N1CCC(=C2c3ccccc3CCc3cccnc32)CC1 |
| 244 to 247 °C | Cn1cc(C2=C(c3c4n(c5ccccc35)CCN(C(=S)n3ccnc3)C4)C(=O)NC2=O)c2ccccc21 |
| 217 to 220 °C | CCc1c2n(c3ccccc13)C(=O)C(=Cc1ncn(C(c3ccccc3)(c3ccccc3)c3ccccc3)c1C)CC2 |
| 175 °C | CCn1nnn(CCN2CCC(=C3c4sccc4CCn4ccnc43)CC2)c1=O |
| 128 to 130 °C | CN1CCN(Cc2cccc(-c3cc4c(Nc5ccc6[nH]ccc6c5)c(C#N)cnc4s3)c2)CC1 |
| 178 to 180 °C | CN1CCC(C2c3ccccc3C=Cc3ccc(Br)cc32)CC1 (single isomer, unassigned; (+)) |
| 101 to 102 °C | COc1ccccc1NC(=O)Nc1nc(N2CCOCC2)nc(N(CCC(=O)O)Cc2cccc(C)c2)n1 |
| > 300 °C | CN1CCc2c(-c3ccc([N+](=O)[O-])cc3)cc3c(c2C1)NC(=O)C3=O |
| 189 °C | CC(C)S(=O)(=O)c1ccc2c(c1)nc(CC(C)(C)C)n2CC1(O)CCOCC1 |
| 64 to 67 °C | COC(=O)CCNC(=O)C1CCCN1S(=O)(=O)c1ccc(Cl)c(COc2cccc3c(C)cc(C)nc23)c1Cl (centres undefined) |
| 173 to 175 °C | CCOC(=O)c1cnc2nc(N3CCN(C)CC3)ncc2c1Cl |
| 156 to 157 °C | CCCN(CCC)C(=O)Cn1c(=O)n(C)c2cnc(-c3ccccc3)nc21 |

Second part, the compound before the results:

| Compound | melting point |
| --- | --- |
| CC1(NCC(O)c2ccc3nnnn3c2)CC1 (centres undefined) | 72 to 73 °C |
| CC(=O)c1c(-c2ccc(O)c3ccccc23)oc2ccccc12 | 212 to 216 °C |
| O=C(O)c1ccc(S(=O)(=O)Oc2ccc(-c3ccc(-c4c(Cc5ccccc5)sc5ccccc45)cc3)cc2Br)cc1O | 117 to 119 °C |
| N#CC=C(N)c1ccccc1C(F)(F)F | 101 to 103 °C |
| CC1(C)Oc2ccc(C#N)cc2C(Oc2cccnn2)C1(C)O (centres undefined) | 93 to 105 °C |
| C=C(C)C(=O)NCCNC(=O)c1ccc2ccccc2c1O | 167 to 169 °C |
| CCOC(=O)C(C#N)=NOC(=O)OCc1ccccc1 | 101 to 102 °C |
| CCC(C)COC(=O)c1ccc(-c2ccc(O)cc2)cc1 (centres undefined) | 112 to 113 °C |
| CC(C)NC(=O)NC1CCCc2sccc21 (centres undefined) | 223 to 226 °C |
| COCc1ncn2c1CN(C)C(=O)c1ccccc1-2 | 115 to 116 °C |
| Cc1cccc(C)c1N(CC(=O)NCC(=O)O)C(=O)c1ccc(Cl)cc1 | 200 to 201 °C |
| COc1ccc2c(-c3ccccc3)c(C(=O)c3ccccc3OC)sc2c1 | 111 to 112 °C |
| O=P(Oc1ccccc1)(Oc1ccc(-c2cssc2=S)cc1)Oc1ccc(-c2cssc2=S)cc1 | 75 to 80 °C |
| C#Cc1c(-c2ccc(F)cc2)cc(C(c2ccccc2)c2ccccc2)nc1C(C)C | 106 to 108 °C |
| CS(=O)(=O)c1ccc(Oc2cc(OCc3ccccc3)c3[nH]c(C4=NCC(CCO)S4)cc3c2)cc1 (centres undefined) | 97 to 98 °C |
| Nc1ccccc1SCC1=NOCN1 | 108 °C |
| O=C1c2ccccc2C(=O)N1Cc1ccccc1[N+](=O)[O-] | 190 to 209 °C |
| COc1cc(C(=O)O)ccc1Cc1c(Cl)n(C)c2ccc(CCNC(=O)N(C)C)cc12 | 215 °C |
| NCCC(O)(c1ccc(Cl)cc1)c1ccc(-c2ccc(Cl)cc2)cc1 (centres undefined) | 131 to 132 °C |
| CCC(=O)NCCc1c(-c2ccccc2)nn2ccc3occc3c12 | 161 to 163 °C |
| COCCNC(=O)COC1c2ccccc2C(=O)N1c1ccc2ccc(OC)nc2n1 (centres undefined) | 172 °C |
| COc1ccc2c(c1)C13CCN(C)C(C2)C1C(C)C(C)C(=O)C3 (centres undefined) | 101 to 102 °C |
| Cc1ccc(-c2[nH]nc3c2Cc2ccccc2-3)cc1 | 250 to 252 °C |

| Compound | melting point |
| --- | --- |
| CCOP(=O)(CC(=O)N(CC)c1cn(-c2cccnc2)nc1Cl)OCC | 46 to 48 °C |
| O=C1c2ccc(OS(=O)(=O)C(F)(F)F)cc2CCC1Cc1ccccc1 (centres undefined) | 52 to 53.7 °C |
| COC(=O)C1CC2=C(CO1)C(=O)C=CC2=O (centres undefined) | 55 to 58 °C |
| C=CCNc1nc(NCc2ccccc2)c2cc([N+](=O)[O-])ccc2n1 | 235 to 236 °C |
| CC(C)(C)Nc1nc(C(F)(F)F)c(C(=O)Cl)o1 | 52 to 60 °C |
| O=C1OC(P(=O)(O)C2OC(=O)c3ccccc32)c2ccccc21 (centres undefined) | 280 to 285 °C |
| CCOC(=O)NC(Cc1ccccc1)C(O)C(=O)O (centres undefined) | 138 to 140 °C |
| Cc1nc(-c2ccc(C(F)(F)F)cc2)sc1CN(C)c1ccc(OCC(=O)O)c(F)c1 | 113 to 114 °C |
| O=C1OC(OC(=O)c2cccnc2Nc2cccc(C(F)(F)F)c2)c2ccccc21 (centres undefined) | 159 to 162 °C |
| COc1ccc(C2c3[nH]c4ccccc4c3CCN2C(=O)C=Cc2ccc(C(F)(F)F)cc2)cc1 (centres undefined) | 130 to 135 °C |
| NC(=S)Nc1ccc(F)cc1-c1ccccc1 | 188 to 190 °C |
| O=C1C=C(c2ccccc2)NCCN1 | 204 to 206 °C |
| CCCCCCCCCCCCCc1nc(N)no1 | 90 to 91 °C |
| Cc1noc(NS(=O)(=O)c2cccc(Cl)c2C)c1Br | 185 to 187 °C |
| CCCCCCCCCCCCCCCCCCN(C(=O)CCCCCCCCCCC)C1O[C@H](CO)[C@@H](O)[C@H](O)[C@H]1NC(=O)CCCCCCCCCCC (some centres undefined) | 86 °C |
| CC(=O)Nc1ccc2c(c1)C(=O)C(=O)N2CCN(C(C)C)C(C)C | 187 to 190 °C |
| CC1(C)C=Nc2cc3[nH]c(-c4ccncc4)cc3cc21 | > 300 °C |
| COc1c(Cl)ccc(-c2cc(N)c(Cl)c(CNCC(=O)O)n2)c1F | 189 to 191 °C |
| CC(C(=O)c1ccc(Cl)cc1)N1CCC(O)(Cc2ccccc2)CC1 (centres undefined) | 136 °C |
| CC1(C)CCC(C)(C)c2cc(-c3cc(-c4ccc(C=O)cc4)on3)ccc21 | 179 to 180 °C |
| COc1ccnc(CCc2nc3cc(-c4ccc(C#N)cc4)cnc3[nH]2)c1 | 241 to 242 °C |
| CN(CCCc1cc(F)c2ncc(C(=O)NCc3ccc(Cl)cc3)c(O)c2c1)Cc1ccccc1 | 161 to 162 °C |
| CC(C)(C)OC(=O)NCC(N)C(=O)N1CCCCC1 (centres undefined) | 87 to 90 °C |

| Compound | melting point |
| --- | --- |
| CC1(C)Oc2ccc(S(=O)(=O)c3ccc(C#N)cc3)cc2C(O)C1Br (centres undefined) | 157 to 158 °C |
| CCCCN1CCN2c3ccc(C)cc3C(c3ccco3)=[N+]([O-])CC2C1 (centres undefined) | 104 to 106 °C |
| Cc1cc(-c2csc(-c3ccc(C(=O)O)cc3)n2)c(C)s1 | 239 to 240 °C |
| CCCCCCCCCCCCOc1ccc(C(=O)O)o1 | 122 to 123 °C |
| CC1C(=O)N(CC(N)=O)c2cc(Br)ccc21 (centres undefined) | 102 to 104 °C |
| CCC(=O)NC(C)(C)C | 90 to 92 °C |
| O=S(=O)(c1ccccc1)n1c2ccc(Br)cc2c2ccc(Cl)nc21 | 204 to 206 °C |
| O=Cc1ccc2c(c1)C1(c3ccccc3-2)c2ccccc2-c2ccc(C=O)cc21 | > 300 °C |
| CCN(C(=O)OC(C)(C)C)c1cnn(C(C)(C)C)c1Cl | 50 to 52 °C |
| O=C(C=C1CC(C(=O)O)Nc2cc(Cl)ccc21)Nc1ccccc1 (racemic) | 118 to 120 °C |
| COC(=O)CCC(=O)c1ccc(Cl)c(S(N)(=O)=O)c1 | 113 to 115 °C |
| Cc1oc2ccccc2c(=O)c1O | 179 to 180 °C |
| OC/C=C/C=C(c1ccccc1)c1ccccc1 | 71 to 72 °C |
| CCCCC(C=O)(CC)CS(=O)(=O)c1ccccc1C(=O)c1ccccc1 (centres undefined) | 135 to 136 °C |
| CN(C(=S)SC(C[N+](=O)[O-])c1ccccc1)c1ccccc1 (centres undefined) | 111 to 116 °C |
| COc1ccc2c(c1)cc(C(=O)Nc1ccc3c(ccn3C)c1)n2Cc1cccc(C(F)(F)F)c1 | 176 to 177 °C |
| COc1ccc(CS(=O)(=O)c2cc3ccc(OC)cc3oc2=O)cc1 | 179 to 180 °C |
| CCC(=O)c1cc(-c2ccc(OC)cc2)no1 | 135 to 136 °C |
| OC(c1ccc(Br)cc1)(c1ccc(Br)cc1)c1cncnc1 | 89 to 90 °C |
| CCOc1nc(NCc2ccco2)nc(Nc2ccccc2-c2cccnc2)n1 | 90 to 92 °C |
| ClC(Cl)(Cl)c1nc2ncccc2[nH]1 | 210 °C |
| NC(=O)c1nc(-c2ccccc2)[nH]c1N | 300 °C |
| CC(=O)NC1Cc2ccc(OC(=O)CCl)cc2C1 (centres undefined) | 106 to 108 °C |
